Results from the NIST ThermoML archive (doi:10.1021/je034096z).

Conditions: Liquid

CC(O)CO (stereo not given) [1,2-propanediol]
Conditions | vapor or sublimation pressure [kPa]
393.22 K | 8.198
393.25 K | 8.207
398.09 K | 10.23
403.14 K | 12.77
403.15 K | 12.77
408.3 K | 15.89
413.1 K | 19.36
413.15 K | 19.39
418.16 K | 23.68
423.15 K | 28.69
423.26 K | 28.81

COCC(C)O (stereo not given) [1-methoxy-2-propanol]
Conditions | vapor or sublimation pressure [kPa]
347.62 K | 19.25
352.64 K | 23.74
353.15 K | 24.25
357.89 K | 29.35
362.93 K | 35.72
363.15 K | 36.03
368.03 K | 43.29
373.15 K | 52.16
373.22 K | 52.3
378.01 K | 61.89

CCCCCCOCCOCCO [2-(2-hexyloxyethoxy)ethanol]
Conditions | vapor or sublimation pressure [kPa]
402.96 K | 1.111
403.01 K | 1.117
403.15 K | 1.124
408.02 K | 1.435
413.15 K | 1.831
413.2 K | 1.835
418.17 K | 2.293
422.87 K | 2.825
423.15 K | 2.858

CN1CCCC1=O [N-methylpyrrolidone]
Conditions | vapor or sublimation pressure [kPa]
352.27 K | 1.285
352.48 K | 1.297
353.15 K | 1.344
359.26 K | 1.823
363.15 K | 2.193
363.36 K | 2.217
368.27 K | 2.777
373.09 K | 3.444
373.15 K | 3.456
377.86 K | 4.229
